The nature of the data set: Compound was evaluated for dissociation constant (pKa). Type of data set: physicochemical.
As for `Cn1cnc2cc([N+](=O)[O-])ccc21`, the pKa came to 3.28.

For the compound `Cc1ccc2ncn(C)c2c1`, the pKa came to 5.7.

In turn, `Cn1cnc2cc([N+](=O)[O-])c([N+](=O)[O-])cc21` displayed a pKa of 1.6.

With `Cc1cc2ncn(C)c2cc1C`, the pKa worked out at 6.

`Cc1ccc2c(c1)ncn2C` returned a pKa of 5.65.

Consider `Cn1cnc2ccccc21`, for which the pKa was 5.6.

Consider `Cn1cnc2ccc([N+](=O)[O-])cc21`, for which the pKa was found to be 3.35.

The values are drawn from ChEMBL document CHEMBL1131650, “Reactions of 1-methylbenzimidazole derivatives with m-chloroperoxybenzoic acid” (Bioorg Med Chem Lett, 1998).
